The source of these data is US20230303712A1, “METHODS OF TREATING GLIOBLASTOMA” (Ramot at Tel-Aviv University Ltd., priority 2020, published 2023).

Entries after “also recorded” stand apart in the source; their conditions may differ.

In assay [1] the test system is bone marrow derived macrophages (BMDM). Briefly: Flow cytometry of PSGL-1, CD206, CD38 on bone marrow derived macrophages. Format: cell-based, murine. On the procedure:
Primary murine bone marrow-derived macrophages (BMDM) isolation. Bone marrow cells were freshly isolated from the tibias and the femurs of 8-12 weeks old C57BL/6 mice (Envigo CRS, Israel). Bone marrow cells were extracted using 25-gauge syringe and passed through a 70 µm nylon strainer (Corning, Israel). For macrophages differentiation cells were incubated with 50 ng/ml recombinant murine GM-CSF for one week. The medium was replaced 4 days post cells isolation. Cells were tested for CD11b and F4/80 expression using flow cytometry.
Flow cytometry. For flow cytometry assays, cells were harvested using a cell scraper, and were then washed with PBS followed by additional washes with PBS supplemented with 1% BSA and 5 mM EDTA (FACS buffer). Tumor spheroids were recovered from Matrigel using Cell Recovery Solution (Corning) and washed with FACS buffer. To validate the purity of the microglia preparations, CD11b isolated cells or human microglia were incubated with TMEM119 and P2Y12-labeled antibodies for 1 h. For human TMEM119, primary antibody was unlabeled and cells were washed and incubated with secondary, Alexa 488 conjugated antibody. To assess P-Selectin and PSGL-1 expression, GB cells and microglia were seeded alone, co-cultured in a 2D petri dish, or grown as spheroids seeded in Matrigel. Cells were treated with control medium or CM for 48 h. They were then incubated with mouse anti-human P-Selectin antibody for 1 h on ice, and then were washed, and incubated with Alexa-488 labeled anti-mouse IgG binding protein for 1 h on ice. Alternatively, cells were incubated with rat anti-human PSGL antibody, and then were washed, and incubated with goat anti-rat, Alexa-488 labeled antibody for 1 h on ice. […] Fluorescence intensity was assessed using either an Attune flow cytometer (Life Technologies) or a Gallios™ flow cytometer (Beckman Coulter, USA) and the results were analyzed by Kaluza software (Beckman Coulter, USA).
A general note: Flow cytometry measures light scatter and fluorescence of single cells or particles in a stream.

A further assay has as its system GL261 GB tumors. Description: SELPi treatment in murine GL261 GB model. Format: in vivo, C57BL/6 mice. The procedure:
Tumor volume was evaluated by MRI.
SELPi treatments. KF 38789 (SELPi) is a commercially-available P-Selectin inhibitor manufactured by Tocris BioScience. […] This compound is commonly used for research of immune-related processes such as tumor metastases formation. For the experiment described above, SELPi (0.8 mg/ml) was dissolved in DMSO (0.01%), polyethyleneglycol (93.2 mg/ml), Tween-80 (14.8 mg/ml) and DDW. Mice were injected with 16 mg/kg IV, twice a week, three times a week or QOD as described above. As control (vehicle), mice were injected with DMSO (0.01%), polyethyleneglycol (93.2 mg/ml), Tween-80 (14.8 mg/ml), in DDW at equivalent volume.
MRI imaging. Tumor bearing mice were imaged at the Sackler Cellular & Molecular Imaging Center (SCMIC), Tel Aviv University. Mice were anesthetized by ketamine (150 mg/kg) and xylazine (12 mg/kg) injected IP. T1 with contrast agent (Magnetol, Gd-DTPA, Soreq M.R.C. Israel Radiopharmaceuticals) and T2 weighted images were taken by 4.7T MRI - MRS 4000™ (MR solutions).

The subject of a further assay is primary human microglia. Briefly: Phagocytosis assay with fluorescent latex beads. It is filed as cell-based. Conditions: added to rSELP; SELPi 0.5 µM, antibodies 2.5 µg/ml. On the procedure:
Phagocytosis assay. Primary human/murine microglia were seeded in 96 well plates (1 × 10^5 cells/ml) in microglia medium, microglia medium supplemented with rSELP (1.5 µg/ml for human microglia and 3.5 µg/ml for murine microglia), microglia medium supplemented with rSELP and SELPi (0.5 µM), microglia medium supplemented with rSELP and anti-PSGL-1 neutralizing antibody (2.5 µg/ml), microglia medium 13 supplemented with rSELP and anti-CD44 neutralizing antibody (2.5 µg/ml) or microglia medium supplemented with rSELP and anti-CD24 neutralizing antibody (2.5 µg/ml) for 48 h. The medium was then replaced by fresh microglia medium containing green fluorescence latex beads for 2-6 h and washed with PBS supplemented with Hoechst staining solution for 10 min. For evaluation of murine macrophages phagocytosis abilities, macrophages were seeded in 96 well plates (5 × 10^5 cells/ml), treated with macrophages medium, macrophages medium supplemented with rSELP (3.5 µg/ml), macrophages medium supplemented with rSELP and SELPi (0.5 µM), macrophages medium supplemented with rSELP and anti-PSGL-1 neutralizing antibody (2.5 µg/ml), macrophages medium supplemented with rSELP and anti-CD44 neutralizing antibody (2.5 µg/ml) or macrophages medium supplemented with rSELP and anti-CD24 neutralizing antibody (2.5 µg/ml) for 48 h. […]

The mark [2] stands for this setting: rSELP, or SELPi added to rSELP containing medium.

`COc1ccc(C2CC(c3c(O)cc(C)oc3=O)=NCCS2)c(OC)c1` (stereo not drawn) [SELPi, 3-[7-(2,4-Dimethoxyphenyl)-2,3,6,7-tetrahydro-1,4-thiazepin-5-yl]-4-hydroxy-6-methyl-2H-pyran-2-one]: the PSGL-1 expression entry in assay [1] (rSELP and GB CM, or SELPi added to GB CM) is listed as “reduced”. In assay [1] (setting [2]), the CD38 expression entry is recorded as “elevated” and the CD206 expression entry is “reduced”. The “tumor volume (MRI)” value in the assay with GL261 GB tumors (GL261, SELPi IV 16 mg/kg three times a week, 16 mg/kg) was “significant reduction in tumor volume; also recorded: reduced tumor growth”. In the assay with GL261 GB tumors (GL261 tumors), the “CD4+ and CD8+ T cells in tumors” value was “increase”; the “CD4+/FOXP3+ T cells in tumors” value is reported as “decrease”; the “blood vessel density (CD31 immunostaining)” value is “clear reduction”; the “proliferation (Ki-67 immunostaining)” value was “clear reduction”. Moreover, the “restoration of phagocytic function” value in the assay on primary human microglia is recorded as “restored the phagocytic function”.
